Measurements from US20130149392A1, “METHOD OF TREATING NON-SMALL CELL LUNG CANCER WITH BIS-(THIOHYDRAZIDE)AMIDE COMPOUNDS” (SYNTA PHARMACEUTICALS CORP., priority 2011, published 2013).

Test system: Stage IIIB or Stage IV Non-Small Cell Lung Cancer (NSCLC)
Test: Phase 2 clinical trial of Compound (1) (STA-4783, elesclomol) with paclitaxel and carboplatin vs paclitaxel and carboplatin; PFS and OS by baseline LDH
Assay type: in vivo, human
Protocol: A Phase 2 Clinical Trial of Compound (1), or STA-4783 (elesclomol) in combination with paclitaxel and carboplatin for the treatment of chemotherapy naive patients with Stage IIIB or Stage IV Non-Small Cell Lung Cancer (NSCLC) was performed. It was a multicenter, randomized, double-blinded, 2-arm study evaluating the recommended Phase 2 dose of STA-4783 (elesclomol) and paclitaxel and AUC=6 mg·min/mL carboplatin as compared with the recommended Phase 2 dose of paclitaxel and AUC=6 mg·min/mL carboplatin.
Both progression-free survival (PFS) and overall survival (OS) were improved in the low baseline LDH (≦0.8 ULN) population (where ULN is Upper Limit of Normal, which in at least one laboratory was 234 units/L, significant deviation from which was low).
Table 1 presents PFS outcomes for ITT (Intent To Treat) population patients with high, normal and low baseline LDH levels. […] In patients with low baseline LDH levels, PFS was improved for treatment, with a median of 4.6 vs. 3.1 months (HR=0.88), where HR mean Hazard Ratio. In patients with normal baseline LDH, median PFS is similar for treatment and control arms (3.3 and 4.0 months, respectively), with a HR of 1.17. In patients with high baseline LDH, median PFS was 2.8 and 6.3 months for treatment and control arms, respectively (HR=[…])
Table 2 presents a summary of the OS analyses for the ITT population with high, normal and low baseline LDH levels. In patients with low baseline LDH levels, OS was improved for treatment, with a median of 10.7 vs. 8.5 months (HR=0.74). In patients with normal baseline LDH, median OS is similar for treatment and control arms (8.4 and 8.4 months, respectively), with a HR of 0.91. In patients with high baseline LDH, median […] was 5 and 10 months for treatment and control arms, respectively (HR=1.64)

[1] = elevated LDH (>1 ULN) population
[2] = low baseline LDH (≦0.8 ULN) population

## CN(NC(=O)CC(=O)NN(C)C(=S)c1ccccc1)C(=S)c1ccccc1 [Compound (1), elesclomol]
[1]
  overall survival (OS), result in words: negative impact
  progression-free survival (PFS), result in words: negative impact
[2]
  overall survival (OS), result in words: improved
  progression-free survival (PFS), result in words: improved
